Source: US20240285634A1, “COMPOUND AND METHOD FOR TREATING CHEMOTHERAPY-ASSOCIATED GASTROINTESTINAL SIDE EFFECTS” (ONQUALITY PHARMACEUTICALS CHINA LTD., priority 2021, published 2024)

Assays:
[1] = test system: Chemotherapeutic agent-caused constipation models of Balb/c mice; test: Relieving effect on constipation caused by a chemotherapeutic agent (Examples 202-364); type: in vivo
Text: Construction of mouse animal models: Chemotherapeutic agent-caused constipation models of Balb/c mice were constructed according to the administration mode and frequency of the chemotherapeutic agent as shown in Table 4. […] Thus, chemotherapeutic agent-caused constipation models of mice are very good models to mimic constipation caused by the chemotherapeutic agent.
Balb/c mice were fed for 1 week, and then divided into groups. The experiment was divided into a control group, a chemotherapeutic agent group, and a group of the compound as shown in Formula I, each of which comprised 10 mice, to perform the administration experiment, for which the administration dosage, mode, time and frequency were shown in Table 4. The control group: being injected or intragastrically administered with the same solvent as that used in the group of the compound as shown in Formula I (the administration mode and time were shown in Table 4), and then being injected or intragastrically administered with the same solvent as that used in the chemotherapeutic agent group (the administration mode was shown in Table 4); the chemotherapeutic agent group: being injected or intragastrically administered with the same solvent as that used in the group of the compound as shown in Formula I (the administration mode and time was shown in Table 4), and then being injected or intragastrically administered with the chemotherapeutic agent (the type, administration mode and dosage were shown in Table 4); the group of the compound as shown in Formula I: being injected or intragastrically administered with the compound as shown in Formula I (the administration mode and time was shown in Table 4), and then being administered with the chemotherapeutic agent (the administration mode and dosage were shown in Table 4).
(§1) The feces reduction rate was calculated with reference to the method of Ji Eun Kim (Lab Anim Res. 2016 December; 32(4): 231-240.). Feces reduction rate (%)=(the control group−the chemotherapeutic agent group or the group of the compound as shown in Formula I)/the control group*100%
(§2) It is regarded as effective remission when the feces reduction rate of mice in the group of the compound as shown in Formula I is reduced compared with that in the chemotherapeutic agent group.
(§3) The feces amount of mice within 3 hours was observed and recorded every day. At the end of the experiment, the number of mice in the group of the compound as shown in Formula I whose feces reduction rate was lower than that of mice in the chemotherapeutic agent group was recorded. Table 4 lists various animal experiment combinations of chemotherapeutic agents and the compound as shown in Formula I, as well as the corresponding experimental results.

[2] = test system: Balb/c mice, constipation caused by continuous administration of a chemotherapeutic agent; test: Relieving effect on constipation caused by the continuous administration of a chemotherapeutic agent (Examples 385-405); type: in vivo
Text: Balb/c mice were fed for 1 week, and then divided into groups. The experiment was divided into a control group, a chemotherapeutic agent group, and a group of the compound as shown in Formula I, each of which comprised 10 mice, to perform the administration experiment, for which the administration dosage, mode, time and frequency were shown in Table 6. The control group: being injected or intragastrically administered with the same solvent as that used in the group of the compound as shown in Formula I (the administration mode and time were shown in Table 6), and then being injected or intragastrically administered with the same solvent as that used in the group of the compound as shown in Formula I (the administration mode was shown in Table 6); the chemotherapeutic agent group: being injected or intragastrically administered with the same solvent as that used in the group of the compound as shown in Formula I (the administration mode and time were shown in Table 6), and then being injected or intragastrically administered with the chemotherapeutic agent (the type, administration mode, time and dosage were shown in Table 6); the group of the compound as shown in Formula I: being injected or intragastrically administered with the compound as shown in Formula I (the administration mode and time were shown in Table 6), and then being administered with the chemotherapeutic agent (the type, administration mode, time and dosage were shown in Table 6).
as §1, §2
as §3, with “6” for “4”

## CN1CCN(c2ccc(Nc3ncc4cc5n(c4n3)C3(CCCCC3)CNC5=O)nc2)CC1 [Compound I, Trilaciclib]
[1]; Example 336, Fluorouracil 100 (F), oxaliplatin 5 (O), irinotecan 100 (I) and tetrahydrofolic acid 100 (L) mg/kg intravenous injection single, compound intravenous injection 100 mg/kg single, 12 h before chemotherapeutic agent, cycle 8 days
  Relative remission rate (%): 60%
[1]; Example 337, Fluorouracil 100 (F), oxaliplatin 5 (O), irinotecan 100 (I) and tetrahydrofolic acid 100 (L) mg/kg intravenous injection single, compound intravenous injection 100 mg/kg single, 14 h before chemotherapeutic agent, cycle 8 days
  Relative remission rate (%): 40%
[1]; Example 338, Fluorouracil 100 (F), oxaliplatin 5 (O), irinotecan 100 (I) and tetrahydrofolic acid 100 (L) mg/kg intravenous injection single, compound intravenous injection 100 mg/kg single, 16 h before chemotherapeutic agent, cycle 8 days
  Relative remission rate (%): 40%
[1]; Example 339, Fluorouracil 100 (F), oxaliplatin 5 (O), irinotecan 100 (I) and tetrahydrofolic acid 100 (L) mg/kg intravenous injection single, compound intravenous injection 100 mg/kg single, 18 h before chemotherapeutic agent, cycle 8 days
  Relative remission rate (%): 40%
[1]; Example 340, Fluorouracil 100 (F), oxaliplatin 5 (O), irinotecan 100 (I) and tetrahydrofolic acid 100 (L) mg/kg intravenous injection single, compound intravenous injection 100 mg/kg single, 20 h before chemotherapeutic agent, cycle 8 days
  Relative remission rate (%): 30%
[1]; Example 341, Fluorouracil 100 (F), oxaliplatin 5 (O), irinotecan 100 (I) and tetrahydrofolic acid 100 (L) mg/kg intravenous injection single, compound intravenous injection 100 mg/kg single, 24 h before chemotherapeutic agent, cycle 8 days
  Relative remission rate (%): 30%
[1]; Example 342, Fluorouracil 100 (F), oxaliplatin 5 (O), irinotecan 100 (I) and tetrahydrofolic acid 100 (L) mg/kg intravenous injection single, compound intravenous injection 100 mg/kg single, 48 h before chemotherapeutic agent, cycle 8 days
  Relative remission rate (%): 0%
[1]; Example 345, Fluorouracil 100 (F), oxaliplatin 5 (O), irinotecan 100 (I) and tetrahydrofolic acid 100 (L) mg/kg intraperitoneal injection single, compound oral administration 100 mg/kg single, 6 h before chemotherapeutic agent, cycle 7 days
  Relative remission rate (%): 60%
[1]; Example 346, Fluorouracil 100 (F), oxaliplatin 5 (O), irinotecan 100 (I) and tetrahydrofolic acid 100 (L) mg/kg intraperitoneal injection single, compound oral administration 100 mg/kg single, 24 h before chemotherapeutic agent, cycle 7 days
  Relative remission rate (%): 40%
[1]; Example 355, Fluorouracil 100 (F), oxaliplatin 5 (O), irinotecan 200 (I) and tetrahydrofolic acid 100 (L) mg/kg oral administration single, compound subcutaneous injection 100 mg/kg single, 0.5 h before chemotherapeutic agent, cycle 7 days
  Relative remission rate (%): 50%
[1]; Example 356, Fluorouracil 100 (F), oxaliplatin 5 (O), irinotecan 200 (I) and tetrahydrofolic acid 100 (L) mg/kg oral administration single, compound subcutaneous injection 100 mg/kg single, 4 h before chemotherapeutic agent, cycle 7 days
  Relative remission rate (%): 50%
[1]; Example 360, Gemcitabine (GEM) intravenous injection 120 mg/kg single, compound oral administration 100 mg/kg single, 24 h before chemotherapeutic agent, cycle 8 days
  Relative remission rate (%): 30%
[1]; administered before the chemotherapeutic agent, Table 4 and FIG. 4
  feces reduction rates compared with the chemotherapeutic agent group: reduced to different degrees
[2]; Example 385, Fluorouracil (5-Fu) 100 mg/kg intraperitoneal injection once a day for 3 days, compound 100 mg/kg intravenous injection once a day for 3 days, 0.5 h before the chemotherapeutic agent, experimental cycle 7 days
  Relative remission rate (%): 70%
[2]; Example 386, Fluorouracil (5-Fu) 100 mg/kg intraperitoneal injection once a day for 3 days, compound 100 mg/kg intravenous injection once a day for 3 days, 4 h before the chemotherapeutic agent, experimental cycle 7 days
  Relative remission rate (%): 50%
[2]; Example 387, Fluorouracil (5-Fu) 100 mg/kg intraperitoneal injection once a day for 3 days, compound 100 mg/kg intravenous injection once a day for 3 days, 6 h before the chemotherapeutic agent, experimental cycle 7 days
  Relative remission rate (%): 40%
[2]; Example 388, Fluorouracil (5-Fu) 100 mg/kg intraperitoneal injection once a day for 3 days, compound 100 mg/kg intravenous injection once a day for 3 days, 8 h before the chemotherapeutic agent, experimental cycle 7 days
  Relative remission rate (%): 30%
[2]; Example 389, Fluorouracil (5-Fu) 100 mg/kg intraperitoneal injection once a day for 5 days, compound 100 mg/kg intraperitoneal injection once a day for 5 days, 0.5 h before the chemotherapeutic agent, experimental cycle 9 days
  Relative remission rate (%): 60%
[2]; Example 390, Fluorouracil (5-Fu) 100 mg/kg intraperitoneal injection once a day for 5 days, compound 100 mg/kg intraperitoneal injection once a day for 5 days, 12 h before the chemotherapeutic agent, experimental cycle 9 days
  Relative remission rate (%): 30%
[2]; Example 391, Fluorouracil (5-Fu) 100 mg/kg intraperitoneal injection once a day for 5 days, compound 100 mg/kg intraperitoneal injection once a day for 5 days, 20 h before the chemotherapeutic agent, experimental cycle 9 days
  Relative remission rate (%): 10%
[2]; Example 392, Fluorouracil (5-Fu) 100 mg/kg intraperitoneal injection once a day for 5 days, compound 100 mg/kg intraperitoneal injection once a day for 5 days, 24 h before the chemotherapeutic agent, experimental cycle 9 days
  Relative remission rate (%): 10%
[2]; Example 396, Fluorouracil (5-Fu) 100 mg/kg intravenous injection once a day for 3 days, compound 100 mg/kg oral administration once a day for 3 days, 4 h before the chemotherapeutic agent, experimental cycle 7 days
  Relative remission rate (%): 40%
[2]; Example 402, Fluorouracil (5-Fu) 100 mg/kg intraperitoneal injection once a day for 7 days, compound 125 mg/kg intraperitoneal injection once a day for 7 days, 2 h before the chemotherapeutic agent, experimental cycle 10 days
  Relative remission rate (%): 10%
[2]; Example 403, Fluorouracil (5-Fu) 100 mg/kg intraperitoneal injection once a day for 7 days, compound 125 mg/kg intraperitoneal injection once a day for 7 days, 4 h before the chemotherapeutic agent, experimental cycle 10 days
  Relative remission rate (%): 10%
[2]; Example 404, Fluorouracil (5-Fu) 100 mg/kg intraperitoneal injection once a day for 7 days, compound 125 mg/kg intraperitoneal injection once a day for 7 days, 6 h before the chemotherapeutic agent, experimental cycle 10 days
  Relative remission rate (%): 10%
[2]; Example 405, Fluorouracil (5-Fu) 100 mg/kg intraperitoneal injection once a day for 7 days, compound 125 mg/kg intraperitoneal injection once a day for 7 days, 8 h before the chemotherapeutic agent, experimental cycle 10 days
  Relative remission rate (%): 0%
[2]; continuous administration of fluorouracil for less than 7 days
  relieving effects on constipation: significant relieving effects
[2]; continuous administration of the chemotherapeutic agent for 7 days or less
  relieving effects on constipation: have relieving effects
